“And” between values parts separate entries of the source, which are not always exact repeats. Equal values may be shown once. Read-outs that look alike come from different tables or passages of the source.
What was measured:
[1] = molecular target: T1, mTOR (Homo sapiens, UniProt P42345); assay: In vitro mTOR kinase inhibition assay (SelectScreen Z'-LYTE), with or without 10 µM FKBP12; type: biochemical; details: for residual kinase activity (mTOR): listed as RL-1
T1 construct: We performed in vitro kinase assays with purified mTOR protein; purchased SelectScreen Services (Thermo Fisher Scientific)
Description: In vitro kinase inhibition assays were performed by SelectScreen Services (Thermo Fisher Scientific) using either Z’-LYTE (mTOR, Src, Csk, EGFR, HER2 and HGK), Adapta (LRRK2) or LanthaScreen (DDR2) assay format (standardized protocols can be accessed on the SelectScreen website: https://www.thermofisher.com/us/en/home/products-and-services/services/custom-services/screening-and-profiling-services/selectscreen-profiling-service/selectscreen-kinase-profiling-service.html. When indicated, recombinant FKBP12 protein was added to the assay mixture to a final concentration of 10 µM.

[2] = tested on: GBM43; assay: Orthotopic intracranial GBM43-luciferase patient-derived glioblastoma xenograft; details: GBM43-Luc
[3] = tested on: mTOR; assay: mTOR signalling in mouse whole brain and skeletal muscle after single i.p. dose (immunoblot, insulin stimulated); type: in vivo; details: for p-4EBP1 Brain, fold relative to no insulin, normalized to GAPDH / p-4EBP1 Muscle, fold relative to no insulin, normalized to GAPDH / p-RPS6 Brain, fold relative to no insulin, normalized to GAPDH / p-RPS6 Muscle, fold relative to no insulin, normalized to GAPDH: RL1 1 mg/kg, RB 40 mg/kg, insulin 250 mU, listed as RL1
Description: Whole brain and skeletal muscle were analyzed by immunoblot.

[4] = BALB/c nu/nu mice, RapaLink-1 1 mg per kg, RapaBlock 40 mg per kg, 4 h or 24 h

T1 sequence (P42345 1360-2549 limits assumed): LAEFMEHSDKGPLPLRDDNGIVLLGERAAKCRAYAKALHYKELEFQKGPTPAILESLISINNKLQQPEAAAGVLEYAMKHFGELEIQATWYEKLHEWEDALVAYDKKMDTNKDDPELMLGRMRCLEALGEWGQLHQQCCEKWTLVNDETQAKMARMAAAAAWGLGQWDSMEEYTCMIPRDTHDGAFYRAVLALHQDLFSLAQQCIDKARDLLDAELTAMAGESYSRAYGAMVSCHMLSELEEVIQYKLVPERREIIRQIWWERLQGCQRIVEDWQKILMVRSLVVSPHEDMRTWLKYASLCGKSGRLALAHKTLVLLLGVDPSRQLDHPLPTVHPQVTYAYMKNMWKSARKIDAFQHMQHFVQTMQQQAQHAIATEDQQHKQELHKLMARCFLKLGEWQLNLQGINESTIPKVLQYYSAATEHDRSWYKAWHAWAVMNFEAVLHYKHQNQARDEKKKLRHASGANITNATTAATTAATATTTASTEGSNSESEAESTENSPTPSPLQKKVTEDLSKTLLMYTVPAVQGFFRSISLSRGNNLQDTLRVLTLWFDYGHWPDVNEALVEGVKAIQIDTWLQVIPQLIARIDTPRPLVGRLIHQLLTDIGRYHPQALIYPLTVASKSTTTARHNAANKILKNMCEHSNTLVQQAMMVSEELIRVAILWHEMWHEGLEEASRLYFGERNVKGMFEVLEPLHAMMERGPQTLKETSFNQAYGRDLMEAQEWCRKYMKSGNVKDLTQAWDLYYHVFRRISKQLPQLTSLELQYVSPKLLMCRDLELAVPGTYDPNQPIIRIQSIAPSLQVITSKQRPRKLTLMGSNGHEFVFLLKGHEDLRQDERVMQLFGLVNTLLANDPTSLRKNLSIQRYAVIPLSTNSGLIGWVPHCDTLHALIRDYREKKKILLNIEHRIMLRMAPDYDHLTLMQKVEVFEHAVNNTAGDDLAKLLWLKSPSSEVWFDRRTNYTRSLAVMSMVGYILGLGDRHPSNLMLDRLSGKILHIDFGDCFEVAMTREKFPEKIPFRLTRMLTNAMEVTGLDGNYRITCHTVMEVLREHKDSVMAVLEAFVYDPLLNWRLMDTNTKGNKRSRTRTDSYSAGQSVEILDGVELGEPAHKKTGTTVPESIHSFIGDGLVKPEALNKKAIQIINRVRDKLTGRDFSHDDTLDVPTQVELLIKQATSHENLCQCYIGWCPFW

CO[C@H]1C[C@@H]2CC[C@@H](C)[C@@](O)(O2)C(=O)C(=O)N2CCCC[C@H]2C(=O)O[C@H]([C@H](C)C[C@@H]2CC[C@@H](OCCOCc3cn(CCOCCOCCOCCOCCOCCOCCOCCOCCC(=O)NCCCCn4nc(-c5ccc6oc(N)nc6c5)c5c(N)ncnc54)nn3)[C@H](OC)C2)CC(=O)[C@H](C)/C=C(\C)[C@@H](O)[C@@H](OC)C(=O)[C@H](C)C[C@H](C)/C=C/C=C/C=C/1C [RapaLink-1]
residual kinase activity (mTOR) ([1]; 0.00495 nM drug, no FKBP): 100 | remaining activity at 4.95 pM ([1]; 0.00495 nM drug, no FKBP, read-out: residual kinase activity (mTOR)): 96% | residual kinase activity (mTOR) ([1]; 0.0152 nM drug, +FKBP): 103 | remaining activity at 15.2 pM ([1]; 0.0152 nM drug, +FKBP, read-out: residual kinase activity (mTOR)): 98% | residual kinase activity (mTOR) ([1]; 0.0152 nM drug, no FKBP): 101 | remaining activity at 15.2 pM ([1]; 0.0152 nM drug, no FKBP, read-out: residual kinase activity (mTOR)): 100% | residual kinase activity (mTOR) ([1]; 0.0457 nM drug, +FKBP): 103 | remaining activity at 45.7 pM ([1]; 0.0457 nM drug, +FKBP, read-out: residual kinase activity (mTOR)): 102% | residual kinase activity (mTOR) ([1]; 0.0457 nM drug, no FKBP): 99 | remaining activity at 45.7 pM ([1]; 0.0457 nM drug, no FKBP, read-out: residual kinase activity (mTOR)): 101% | residual kinase activity (mTOR) ([1]; 0.137 nM drug, +FKBP): 99 | remaining activity at 0.000137 µM ([1]; 0.137 nM drug, +FKBP, read-out: residual kinase activity (mTOR)): 101% | residual kinase activity (mTOR) ([1]; 0.137 nM drug, no FKBP): 96 | remaining activity at 0.000137 µM ([1]; 0.137 nM drug, no FKBP, read-out: residual kinase activity (mTOR)): 97% | remaining activity at 0.000412 µM ([1]; 0.412 nM drug, +FKBP, read-out: residual kinase activity (mTOR)): 97% | residual kinase activity (mTOR) ([1]; 0.412 nM drug, no FKBP): 92 | remaining activity at 0.000412 µM ([1]; 0.412 nM drug, no FKBP, read-out: residual kinase activity (mTOR)): 95% | residual kinase activity (mTOR) ([1]; 1.23 nM drug, +FKBP): 86 | remaining activity at 0.00123 µM ([1]; 1.23 nM drug, +FKBP, read-out: residual kinase activity (mTOR)): 89% | residual kinase activity (mTOR) ([1]; 1.23 nM drug, no FKBP): 83 | remaining activity at 0.00123 µM ([1]; 1.23 nM drug, no FKBP, read-out: residual kinase activity (mTOR)): 87% | residual kinase activity (mTOR) ([1]; 11.1 nM drug, +FKBP): 17 | remaining activity at 0.0111 µM ([1]; 11.1 nM drug, +FKBP, read-out: residual kinase activity (mTOR)): 14% | remaining activity at 0.0111 µM ([1]; 11.1 nM drug, no FKBP, read-out: residual kinase activity (mTOR)): 15% | residual kinase activity (mTOR) ([1]; 33.3 nM drug, +FKBP): 4 | remaining activity at 0.0333 µM ([1]; 33.3 nM drug, +FKBP, read-out: residual kinase activity (mTOR)): 2% | residual kinase activity (mTOR) ([1]; 33.3 nM drug, no FKBP): 2 | remaining activity at 0.0333 µM ([1]; 33.3 nM drug, no FKBP, read-out: residual kinase activity (mTOR)): 3% | residual kinase activity (mTOR) ([1]; 100 nM drug, +FKBP): 2 | remaining activity at 0.1 µM ([1]; 100 nM drug, +FKBP, read-out: residual kinase activity (mTOR)): 3% | residual kinase activity (mTOR) ([1]; […] drug, +FKBP): 57 | remaining activity at […] ([1]; […] drug, +FKBP, read-out: residual kinase activity (mTOR)): 55% | residual kinase activity (mTOR) ([1]; […] drug, no FKBP): 54 | remaining activity at […] ([1]; […] drug, no FKBP, read-out: residual kinase activity (mTOR)): 56% | IC50 for mTOR kinase activity ([1]; purified mTOR, whether FKBP12 was present): identical half-maximal inhibitory concentration (IC50) values as MLN0128 | Mouse weight ([2]; day 0, individual mice): 23.5 g and 21.9 g and 22.3 g and 22.1 g and 19.3 g and 21.6 g | Tumor size (measured by bioluminescence) ([2]; day 0, individual mice): 9520000 and 3020000 and 1670000 and 519000 and 248000 and 80200 | Mouse weight ([2]; day 4, individual mice): 22.9 g and 20.8 g and 22.2 g (2×) and 23.1 g and 20.1 g | Tumor size (measured by bioluminescence) ([2]; day 4, individual mice): 1310000 and 940000 and 1040000 and 482000 and 175000 and 141000 | Mouse weight ([2]; day 7, individual mice): 22.7 g and 19.8 g and 21.2 g and 20.8 g and 19.6 g and 22.9 g | Tumor size (measured by bioluminescence) ([2]; day 7, individual mice): 121000000 and 131000000 and 102000000 and 25200000 and 4850000 | Mouse weight ([2]; day 10, individual mice): 20.5 g and 20.2 g and 21.6 g and 20.6 g and 19.4 g and 22 g | Tumor size (measured by bioluminescence) ([2]; day 10, individual mice): 686000000 and 671000000 and 515000000 and 1100000000 and 3050000000 and 2140000 | Mouse survival ([2]; individual mice, listed as RL-1): 17 days and 18 days and 19 days | p-4EBP1 Brain, fold relative to no insulin, normalized to GAPDH ([3]; 4h): 1.26 and 1.03 and 0.71 | p-4EBP1 Muscle, fold relative to no insulin, normalized to GAPDH ([3]; 4h): 1 and 1.04 and 1.12 | p-RPS6 Brain, fold relative to no insulin, normalized to GAPDH ([3]; 4h): 1.23 and 1.15 and 1.11 | p-RPS6 Muscle, fold relative to no insulin, normalized to GAPDH ([3]; 4h): 0.9 and 1.3 and 1.14 | p-4EBP1 Brain, fold relative to no insulin, normalized to GAPDH ([3]; 24h): 0.98 and 0.96 and 0.78 | p-4EBP1 Muscle, fold relative to no insulin, normalized to GAPDH ([3]; 24h): 1.18 and 1.08 and 1.1 | p-RPS6 Brain, fold relative to no insulin, normalized to GAPDH ([3]; 24h): 0.89 and 0.78 and 1.52 | p-RPS6 Muscle, fold relative to no insulin, normalized to GAPDH ([3]; 24h): 1.11 and 1.39 | mTOR activity in brain (p-S6, p-4EBP1) [3, 4]: potently inhibited mTOR signalling in both skeletal muscle and brain tissues | mTOR activity in skeletal muscle (p-S6, p-4EBP1) [3, 4]: potently inhibited mTOR signalling in both skeletal muscle and brain tissues

Reference: publication PMC9492542, “Brain-restricted mTOR inhibition with binary pharmacology” (Nature, 2022)
